Reference: the NIST ThermoML archive (doi:10.1021/je060271a)
Numbers after ± are expanded uncertainties.

Conditions: 303.15 K, Liquid, Vibrating tube method

CCCCCCCC(=O)OCC(COC(=O)CCCCCCC)(COC(=O)CCCCCCC)COC(=O)CCCCCCC [pentaerythritol tetraoctanoate]
Conditions	mass density [kg/m3]
2156.4 kPa	956.7 ± 1.2
2179.1 kPa	956.6 ± 1.2
2206.4 kPa	956.8 ± 1.2
2234.6 kPa	956.8 ± 1.2
2258 kPa	956.7 ± 1.2
2287 kPa	956.8 ± 1.2
2316.5 kPa	956.9 ± 1.2
2341.8 kPa	956.8 ± 1.2
2372.4 kPa	956.7 ± 1.2
2402.9 kPa	957 ± 1.2
2429.4 kPa	956.7 ± 1.2
2462 kPa	956.8 ± 1.2
2495.8 kPa	956.9 ± 1.2
2524.1 kPa	957 ± 1.2
2559.1 kPa	956.9 ± 1.2
2596.2 kPa	957.1 ± 1.2
2642 kPa	957 ± 1.2
2696.3 kPa	957.1 ± 1.2
2784.7 kPa	957.1 ± 1.2
2865.2 kPa	957.2 ± 1.2
2954.3 kPa	957.3 ± 1.2
3081.5 kPa	957.2 ± 1.2
3108.7 kPa	957.4 ± 1.2
3121.2 kPa	957.4 ± 1.2
3136.3 kPa	957.4 ± 1.2
3151.3 kPa	957.4 ± 1.2
3164 kPa	957.4 ± 1.2
3179.1 kPa	957.5 ± 1.2
3193.3 kPa	957.4 ± 1.2
3204.5 kPa	957.4 ± 1.2
3218.1 kPa	957.4 ± 1.2
3229.7 kPa	957.4 ± 1.2
3242.8 kPa	957.4 ± 1.2
3256.4 kPa	957.5 ± 1.2
3270.2 kPa	957.4 ± 1.2
3284.1 kPa	957.5 ± 1.2
3580.6 kPa	957.6 ± 1.2
3702.5 kPa	957.6 ± 1.2
3720 kPa	957.5 ± 1.2
3734.9 kPa	957.7 ± 1.2
3753.7 kPa	957.7 ± 1.2
3901.1 kPa	957.9 ± 1.2
4311.5 kPa	958.1 ± 1.2
4330 kPa	958 ± 1.2
4352.8 kPa	958.1 ± 1.2
4371.7 kPa	958.1 ± 1.2
4395.1 kPa	958.1 ± 1.2
4412.6 kPa	958.1 ± 1.2
4416.5 kPa	958.2 ± 1.2
4419.7 kPa	958.2 ± 1.2
4422.8 kPa	958.2 ± 1.2
4423.3 kPa	958.2 ± 1.2
4424.2 kPa	958.1 ± 1.2
4426.8 kPa	958.2 ± 1.2
4435.8 kPa	958.1 ± 1.2
4446.7 kPa	958.3 ± 1.2
4455.8 kPa	958.2 ± 1.2
4466.6 kPa	958 ± 1.2
4475.6 kPa	958.1 ± 1.2
4486.7 kPa	958.2 ± 1.2
4542.6 kPa	958.3 ± 1.2
4584.4 kPa	958.1 ± 1.2
4608.3 kPa	958.4 ± 1.2
4628.1 kPa	958.3 ± 1.2
4651.8 kPa	958.3 ± 1.2
4675.6 kPa	958.3 ± 1.2
4696.6 kPa	958.2 ± 1.2
4717 kPa	958.3 ± 1.2
4742.3 kPa	958.4 ± 1.2
4763.2 kPa	958.3 ± 1.2
4788.5 kPa	958.3 ± 1.2
4809.9 kPa	958.5 ± 1.2
4835.7 kPa	958.4 ± 1.2
4857.2 kPa	958.4 ± 1.2
4981.8 kPa	958.4 ± 1.2
5009.3 kPa	958.4 ± 1.2
5033 kPa	958.5 ± 1.2
5062 kPa	958.5 ± 1.2
5085.4 kPa	958.5 ± 1.2
5113.6 kPa	958.5 ± 1.2
5138.1 kPa	958.6 ± 1.2
5167.4 kPa	958.5 ± 1.2
5197.3 kPa	958.7 ± 1.2
5221.9 kPa	958.5 ± 1.2
5251.8 kPa	958.7 ± 1.2
5277.7 kPa	958.7 ± 1.2
5335.3 kPa	958.6 ± 1.2
5367.5 kPa	958.6 ± 1.2
5396 kPa	958.7 ± 1.2
5428.7 kPa	958.7 ± 1.2
5455.7 kPa	958.7 ± 1.2
5489.1 kPa	958.8 ± 1.2
5517.5 kPa	958.8 ± 1.2
5552 kPa	958.7 ± 1.2
5581.6 kPa	958.8 ± 1.2
5767 kPa	959 ± 1.2
5794 kPa	959.1 ± 1.2
5810.8 kPa	959 ± 1.2
5827.4 kPa	959 ± 1.2
5847.7 kPa	959 ± 1.2
5864.7 kPa	959.1 ± 1.2
5884.7 kPa	959.1 ± 1.2
5905.3 kPa	959.1 ± 1.2
5922.3 kPa	959.1 ± 1.2
5943.2 kPa	959 ± 1.2
5960.8 kPa	959.2 ± 1.2
5981.9 kPa	959.1 ± 1.2
5999.7 kPa	959.2 ± 1.2
6021.7 kPa	959.2 ± 1.2
6040 kPa	959.2 ± 1.2
6060.9 kPa	959.1 ± 1.2
6079.2 kPa	959.1 ± 1.2
6100.3 kPa	959.1 ± 1.2
6121.9 kPa	959.2 ± 1.2
6140.7 kPa	959.2 ± 1.2
6163.6 kPa	959.3 ± 1.2
6182 kPa	959.2 ± 1.2
6204.5 kPa	959.3 ± 1.2
6223.9 kPa	959.3 ± 1.2
6247 kPa	959.2 ± 1.2
6267.1 kPa	959.2 ± 1.2
6290.2 kPa	959.3 ± 1.2
6308.9 kPa	959.3 ± 1.2
6332.4 kPa	959.2 ± 1.2
6355.9 kPa	959.3 ± 1.2
6375.8 kPa	959.2 ± 1.2
6400.1 kPa	959.3 ± 1.2
6445.1 kPa	959.4 ± 1.2
6470.5 kPa	959.3 ± 1.2
6490.8 kPa	959.3 ± 1.2
6583.6 kPa	959.4 ± 1.2
6610.2 kPa	959.4 ± 1.2
6631.8 kPa	959.5 ± 1.2
6658.3 kPa	959.5 ± 1.2
6679.2 kPa	959.5 ± 1.2
6705.9 kPa	959.6 ± 1.2
6728.4 kPa	959.5 ± 1.2
6755.2 kPa	959.5 ± 1.2
6783 kPa	959.5 ± 1.2
6805.9 kPa	959.6 ± 1.2
6833.9 kPa	959.6 ± 1.2
6861.7 kPa	959.7 ± 1.2
6913.4 kPa	959.7 ± 1.2
7101.4 kPa	959.8 ± 1.2
7125.9 kPa	959.9 ± 1.2
7156.7 kPa	959.7 ± 1.2
7182.6 kPa	959.8 ± 1.2
7214 kPa	959.8 ± 1.2
